Here are results for 23 compounds from US20120121540A1 (priority 2007, published 2012).

The test in a line: HCV replicon assay (luciferase reporter, ET cell line). It counts as cell-based. The conditions noted are these: Hepatitis C virus, HCV replicon luciferase activity in ET cells. The essentials: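 EC50 and, via WST-1 cytotoxicity, TC50 were fitted with a Hill-coefficient equation to % inhibition across 10 two-fold dilutions. Compounds at 0.1 nM-[…] with 0.5% DMSO were applied 24 h post-seeding to replicon-bearing ET cells (luc-ubi-neo/NS3-5B, adaptive mutations). Firefly luciferase signal was measured after 48-72 h.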
In general terms: In antiviral work, replicon cells carry a viral genome segment that copies itself.
Turning to `O=C(c1nc2c(C(F)(F)F)cc(-c3ccoc3)cn2c1Cl)N1CCC(c2ccncc2)C1` (centres unmarked) [Compound 454, (3-Chloro-6-furan-3-yl-8-trifluoromethyl-imidazo[1,2-a]pyridin-2-yl)-(3-pyridin-4-yl-pyrrolidin-1-yl)-methanone], the inhibition (in general, how much of the control response was suppressed) at 10 µM was 96.1%.
As for `O=C(c1nc2c(C(F)(F)F)cc(-c3cn[nH]c3)cn2c1Br)N1CCC(c2nccs2)C1` (centres unmarked) [Compound 432, [3-Bromo-6-(1H-pyrazol-4-yl)-8-trifluoromethyl-imidazo[1,2-a]pyridin-2-yl]-(3-thiazol-2-yl-pyrrolidin-1-yl)-methanone], the figure is 96.5%; as for `COC(=O)Cc1c(C(=O)NCc2cccs2)nc2c(C(F)(F)F)cc(-c3ccoc3)cn12` [Compound 222, {6-Furan-3-yl-2-[(thiophen-2-ylmethyl)-carbamoyl]-8-trifluoromethyl-imidazo[1,2-a]pyridin-3-yl}-acetic Acid Methyl Ester], 66.1%; as for `O=C(Nc1nc2c(C(F)(F)F)cc(-c3ccoc3)cn2c1Cl)c1cccs1` [Compound 356, Thiophene-2-carboxylic acid (3-chloro-6-furan-3-yl-8-trifluoromethyl-imidazo[1,2-a]pyridin-2-yl)-amide], 32.5%.
As for `O=C(c1nc2c(C(F)(F)F)cc(-c3ccoc3)cn2c1Cl)N1CCC(n2cnc3ccccc32)CC1` [Compound 605, (4-Benzoimidazol-1-yl-piperidin-1-yl)-(3-chloro-6-furan-3-yl-8-trifluoromethyl-imidazo[1,2-a]pyridin-2-yl)-methanone], the figure is 3.1%; as for `N#Cc1cccc(F)c1C1=CCN(C(=O)c2nc3c(C(F)(F)F)cc(-c4ccoc4)cn3c2Cl)CC1` [Compound 565, 2-[1-(3-Chloro-6-furan-3-yl-8-trifluoromethyl-imidazo[1,2-a]pyridine-2-carbonyl)-1,2,3,6-tetrahydro-pyridin-4-yl]-3-fluoro-benzonitrile], 98%.
The value for `O=C(c1nc2c(C(F)(F)F)cc(-c3ccco3)cn2c1Cl)N1CCC(c2ccccc2)CC1` [Compound 218, (3-Chloro-6-furan-2-yl-8-trifluoromethyl-imidazo[1,2-a]pyridin-2-yl)-(4-phenyl-piperidin-1-yl)-methanone] was 63.5%.
In turn, `O=C(c1nc2c(C(F)(F)F)cc(-c3ccoc3)cn2c1Cl)N1CCN(c2ccc(F)c(F)c2)CC1` [Compound 538] yielded an inhibition at 10 µM of 78.3%.
As for `O=C(NCc1cncs1)c1nc2c(C(F)(F)F)cc(-c3ccoc3)cn2c1Cl` [Compound 360, 3-Chloro-6-furan-3-yl-8-trifluoromethyl-imidazo[1,2-a]pyridine-2-carboxylic Acid (thiazol-5-ylmethyl)-amide], the figure is 85.2%; as for `Cc1n[nH]cc1-c1cc(C(F)(F)F)c2nc(C(=O)N3CCC(c4cccc(F)c4)C3)c(Cl)n2c1` (centres unmarked) [Compound 625, [3-Chloro-6-(3-methyl-1H-pyrazol-4-yl)-8-trifluoromethyl-imidazo[1,2-a]pyridin-2-yl]-[3-(3-fluoro-phenyl)-pyrrolidin-1-yl]-methanone], 59.8%.
The value for `CCS(=O)(=O)NC1CN(C(=O)c2nc3c(C(F)(F)F)cc(-c4ccoc4)cn3c2Cl)C1` [Compound 500, Ethanesulfonic Acid[1-(3-chloro-6-furan-3-yl-8-trifluoromethyl-imidazo[1,2-a]pyridine-2-carbonyl)-azetidin-3-yl]-amide] was 98%; that for `O=C(NCc1cccs1)c1cc2cc(-c3ccccc3)cc(NCCO)n2n1` [Compound 154, 7-(2-Hydroxy-ethylamino)-5-phenyl-pyrazolo[1,5-a]pyridine-2-carboxylic acid (thiophen-2-ylmethyl)-amide] was 58.8%; that for `O=C(c1nc2c(C(F)(F)F)cc(-c3ccoc3)cn2c1Cl)N1CC=C(c2cn[nH]c2)CC1` [Compound 579, (3-Chloro-6-furan-3-yl-8-trifluoromethyl-imidazo[1,2-a]pyridin-2-yl)-[4-(1-1H-pyrazol-4-yl)-3,6-dihydro-2H-pyridin-1-yl)-methanone] was 97.6%.
Compound `O=C(NCc1cccc(N2CCOCC2)c1)c1nc2c(C(F)(F)F)cc(-c3ccco3)cn2c1Cl` [Compound 213, 3-Chloro-6-furan-2-yl-8-trifluoromethyl-imidazo[1,2-a]pyridine-2-carboxylic Acid 3-morpholin-4-yl-benzylamide] gave an inhibition at 10 µM of 2.7%.
As for `O=C(NCc1cn2cc(-c3ccoc3)cc(C(F)(F)F)c2n1)NCc1ccccc1F` [Compound 399, 1-(2-Fluoro-benzyl)-3-(6-furan-3-yl-8-trifluoromethyl-imidazo[1,2-a]pyridine-2-ylmethyl)-urea], the figure is 37.7%; as for `O=C(c1nc2c(C(F)(F)F)cc(-c3ccoc3)cn2c1Cl)N1CCC(C2CCOC2)C1` (centres unmarked) [Compound 431, (3-Chloro-6-furan-3-yl-8-trifluoromethyl-imidazo[1,2-a]pyridin-2-yl)-[3-(tetrahydro-furan-3-yl)-pyrrolidin-1-yl]-methanone], 95.1%; as for `O=C(NCCN1CCOCC1)[C@@H]1CN(C(=O)c2nc3c(C(F)(F)F)cc(-c4ccoc4)cn3c2Cl)C[C@H]1c1ccccc1` (stereo in doubt) [Compound 225], 39.8%.
The compound `COc1ccccc1C1CCN(C(=O)c2nc3c(C(F)(F)F)cc(-c4ccoc4)cn3c2Cl)CC1` [Compound 550, (3-Chloro-6-furan-3-yl-8-trifluoromethyl-imidazo[1,2-a]pyridin-2-yl)-[4-(2-methoxy-phenyl)-piperidin-1-yl)-methanone] yielded an inhibition at 10 µM of 64.8%.
Regarding `O=C(NCc1cccs1)c1nc2c(C(F)(F)F)cc(-c3ccsc3)cn2c1Cl` [Compound 160, 3-Chloro-6-thiophen-3-yl-8-trifluoromethyl-imidazo[1,2-a]pyridine-2-carboxylic acid (thiophen-2-ylmethyl)-amide], the inhibition at 10 µM was found to be 97.3%.
On to `O=C(NCc1cccs1)c1nc2c(C(F)(F)F)cc(-c3cccnc3)cn2c1Cl` [Compound 208, 3-Chloro-6-pyridin-3-yl-8-trifluoromethyl-imidazo[1,2-a]pyridine-2-carboxylic acid (thiophen-2-ylmethyl)-amide], for which 10 µM produced 88.5% inhibition.
As for `O=C(NCc1ccc(Cl)s1)c1nn2c(C(F)(F)F)cc(-c3ccccc3)cc2c1Cl` [Compound 123, 3-Chloro-5-phenyl-7-trifluoromethyl-pyrazolo[1,5-a]pyridine-2-carboxylic Acid (5-chloro-thiophen-2-ylmethyl)-amide], the figure is 46.1%; as for `CC(C)(C)OC(=O)NC1CN(C(=O)c2nc3c(C(F)(F)F)cc(-c4ccoc4)cn3c2Cl)C1` [Compound 489, [1-(3-Chloro-6-furan-3-yl-8-trifluoromethyl-imidazo[1,2-a]pyridine-2-carbonyl)-azetidin-3-yl]-carbamic Acid Tert-butyl Ester], 33%.
The value for `Nc1cccc(C2CCN(C(=O)c3nc4c(C(F)(F)F)cc(-c5ccoc5)cn4c3Cl)C2)c1` (centres unmarked) [Compound 462, [3-(3-Amino-phenyl)-pyrrolidin-1-yl]-(3-chloro-6-furan-3-yl-8-trifluoromethyl-imidaz [1,2-a]pyridin-2-yl)-methanone] was 86.5%.
